Laboratory results: US20090105136A1, “NPY Y2 Agonist for Use as Therapeutic Agent for Disease Accompanied by Diarrhea” (priority 2005, published 2009)

Test system: mice (C57BL/6)
Assay: Motility of stomach and small intestine (charcoal transit, GI motility)
Type: in vivo
Details: 0.3 mg/kg or 3 mg/kg intraperitoneal; 30 minutes after oral charcoal; vs vehicle control mice; FIG. 1
Method: At the same time, control mice (vehicle) to which only a vehicle was administered were prepared, and the same test was carried out using these mice. The motility of stomach and small intestine was measured as follows. That is, charcoal powder was suspended in a 0.5% methyl cellulose solution and the resulting suspension was orally administered to the mice. After 30 minutes, the distance that the charcoal entering into the stomach traveled in the intestinal tract was measured by dissection. At the same time, the total length of the small intestine from the pyloric portion of stomach to the beginning of the cecum was also measured, and the ratio (%) of the distance that the charcoal traveled to the total length of the small intestine was plotted in a graph as a GI (gastrointestinal) motility.

neuropeptide Y [NPY]
GI (gastrointestinal) motility: ratio of distance the charcoal traveled to total length of small intestine: lower than that of the control mice
